# Test results: patent US20100113466A1, “OXAZOLE-PYRIDAZINE-OXAZOLE ALPHA-HELIX MIMETIC” (The Scripps Research Institute, priority 2008, published 2010)
# Target: Bcl-xL (Homo sapiens, UniProt Q07817)
# Assay: Bak/Bcl-XL competitive fluorescence polarization binding assay with fluorescein labeled Bid peptide
# Conditions: displacement of fluorescein labeled Bid peptide from Bcl-xL; mP values only in drawings
# Excerpt: The affinity of each molecule within the library of potential Bak mimetics can be assayed with respect to binding to Bcl-xL receptor. The binding affinity can be determined, for example, by a competitive binding assay based on fluorescence polarization. See Wang, et al., Proc. Natl. Acad. Sci., 2000, 97:7124-7129.
# Competitive fluorescence polarization-based assays require a dye-labeled peptide to determine if the small molecule has affinity for the target protein. These assays can be carried out with a fluorescein labeled Bid peptide. […] When a solution of fluorescein labeled Bid peptide is irradiated with polarized light, the peptide rotates quickly and the emitted light is depolarized. Upon complexation with the target Bcl-xL protein, the larger complex rotates slowly and the emitted light remains polarized.
# When the fluorescein-labeled Bid/Bcl-xL complex is exposed to small molecules with binding affinity for Bcl-xL, the Bid peptide is displaced and the amount of depolarized light emitted increases. This polarization amount (mP) provides an estimate of the affinity for the small molecules for Bcl-xL
# See Kutzki, et al., J. Am. Chem. Soc., 2002, 124:11838-11839. This compound acts as a positive control.
# These compounds represent the strongest binders for Bcl-xL of the Bak mimetic library, with structure and mP values shown below.
# Chain of Bcl-xL (Q07817 whole entry, species assumed): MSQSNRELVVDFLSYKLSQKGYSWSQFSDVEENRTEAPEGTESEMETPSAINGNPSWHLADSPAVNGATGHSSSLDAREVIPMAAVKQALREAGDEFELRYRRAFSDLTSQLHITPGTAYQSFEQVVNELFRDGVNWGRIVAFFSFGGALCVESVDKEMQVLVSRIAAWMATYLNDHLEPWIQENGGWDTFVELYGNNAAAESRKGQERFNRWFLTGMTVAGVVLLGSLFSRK
row,Compound,activity (mP value) in binding to Bcl-xL
1,"CC(C)Cc1cc(-c2nc(C(C)C)co2)nnc1-c1nc(C(C)C)co1 [Compound 4.53, 2,2′-(4-isobutylpyridazine-3,6-diyl)bis(4-isopropyloxazole)]",particularly active
2,"CC(C)Cc1cc(C(=O)N2CCC[C@@H](OCc3ccccc3)C2)nnc1-c1nc(C(C)C)co1 [Compound 4.73, (R)-(3-(Benzyloxy)piperidin-1-yl)(5-isobutyl-6-(4-isopropyloxazol-2-yl)pyridazin-3-yl)methanone]",particularly active
